From ChEMBL document CHEMBL1201862, “PubChem BioAssay data set” (2004)
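Growth conditions: 96-well plates. Treatment: test compound, 48 hours, 5 concentrations. Analysis: linear interpolation between bracketing concentrations; unreached endpoints set to highest concentration. At the GI50, growth is halved.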 Activity calls are given as the source filed them. Cut-off read from the data, not from the text of the source: active = GI50 up to about 1.1 µM and inactive = higher.

Experiments:
Test in all cases: DTP human tumour cell line panel, 48 h
KM12 = test system: KM12
UACC-257 = test system: UACC-257
HOP-62 = test system: HOP-62
TK-10 = test system: TK-10
CCRF-CEM = test system: CCRF-CEM
RPMI-8226 = test system: RPMI-8226
UACC-62 = test system: UACC-62
IGROV-1 = test system: IGROV-1
OVCAR-3 = test system: OVCAR-3
ACHN = test system: ACHN
T47D = test system: T47D
SN12C = test system: SN12C
OVCAR-4 = test system: OVCAR-4
Hs-578T = test system: Hs-578T
M14 = test system: M14
NCI-H226 = test system: NCI-H226
NCI-H460 = test system: NCI-H460
786-0 = test system: 786-0
UO-31 = test system: UO-31
NCI/ADR-RES = test system: NCI/ADR-RES

| SMILES | GI50 (KM12) | GI50 (UACC-257) | GI50 (HOP-62) | GI50 (TK-10) | GI50 (CCRF-CEM) | GI50 (RPMI-8226) | GI50 (UACC-62) | GI50 (IGROV-1) | GI50 (OVCAR-3) | GI50 (ACHN) | GI50 (T47D) | GI50 (SN12C) | GI50 (OVCAR-4) | GI50 (Hs-578T) | GI50 (M14) | GI50 (NCI-H226) | GI50 (NCI-H460) | GI50 (786-0) | GI50 (UO-31) | GI50 (NCI/ADR-RES) |
| --- | --- | --- | --- | --- | --- | --- | --- | --- | --- | --- | --- | --- | --- | --- | --- | --- | --- | --- | --- | --- |
| CNn1c(-c2ccccc2)n[nH]c1=O | > 100 µM (inactive) | > 100 µM (inactive) | > 100 µM (inactive) | > 100 µM (inactive) | > 100 µM (inactive) | > 100 µM (inactive) | > 100 µM (inactive) | > 100 µM (inactive) | > 100 µM (inactive) | > 100 µM (inactive) | > 100 µM (inactive) | > 100 µM (inactive) | > 100 µM (inactive) | > 100 µM (inactive) | > 100 µM (inactive) | > 100 µM (inactive) | > 100 µM (inactive) | > 100 µM (inactive) | > 100 µM (inactive) | > 100 µM (inactive) |
| NS(=O)(=O)c1ccc(NNC(=O)c2cccc3c(=O)c4ccccc4[nH]c23)cc1 | 42.1 µM (inactive) | > 100 µM (inactive) | > 100 µM (inactive) | > 100 µM (inactive) | 46.1 µM (inactive) | 54.7 µM (inactive) | 88.5 µM (inactive) | 58.5 µM (inactive) | 56.9 µM (inactive) | 91.6 µM (inactive) | 48.4 µM (inactive) | > 100 µM (inactive) | 61.8 µM (inactive) | 72.8 µM (inactive) | > 100 µM (inactive) | > 100 µM (inactive) | 87.7 µM (inactive) | > 100 µM (inactive) | 45.1 µM (inactive) | > 100 µM (inactive) |
| O=C(N/N=C\c1ccc([N+](=O)[O-])cc1)Nc1cccc2ccccc12 | > 29.7 µM (inactive) | > 79.3 µM (inactive) | 5.93 µM (inactive) | 14.5 µM (inactive) | > 100 µM (inactive) | > 100 µM (inactive) | 13.2 µM (inactive) | > 63.2 µM (inactive) | > 37.8 µM (inactive) | 27.5 µM (inactive) | > 23.1 µM (inactive) | 48.9 µM (inactive) | > 25.9 µM (inactive) | 3.99 µM (inactive) | 58.9 µM (inactive) | 17.7 µM (inactive) | > 37.3 µM (inactive) | 7.1 µM (inactive) | 24.5 µM (inactive) | 19.1 µM (inactive) |
| c1ccc(-c2cc(C3CO3)c3ccccc3n2)cc1 (stereo not given) | 17.5 µM (inactive) | 19.1 µM (inactive) | 26.5 µM (inactive) | 21.6 µM (inactive) | 29.6 µM (inactive) | 21.9 µM (inactive) | 18.5 µM (inactive) | 17.9 µM (inactive) | 17.9 µM (inactive) | 18.4 µM (inactive) | 18.9 µM (inactive) | 16.3 µM (inactive) | 21.5 µM (inactive) | 29.3 µM (inactive) | 18.9 µM (inactive) | 19.1 µM (inactive) | 18.8 µM (inactive) | 15.5 µM (inactive) | 1.52 µM (inactive) | 24.3 µM (inactive) |
| C=CCN1C(=O)/C(=C/c2ccco2)N=C1SC/C=C/C | 39.6 µM (inactive) | 48.5 µM (inactive) | > 100 µM (inactive) | > 100 µM (inactive) | 45.9 µM (inactive) | 28 µM (inactive) | 25.9 µM (inactive) | 51.2 µM (inactive) | 35.6 µM (inactive) | 35.4 µM (inactive) | 43.6 µM (inactive) | 23.5 µM (inactive) | 60.5 µM (inactive) | 53.8 µM (inactive) | 64.1 µM (inactive) | > 100 µM (inactive) | 57.9 µM (inactive) | 28.2 µM (inactive) | 73.5 µM (inactive) | 37.1 µM (inactive) |
| CC[C@H]1CN(C)[C@H]2Cc3c([nH]c4ccccc34)C(=O)C[C@H]1C2C(=O)OC (stereo not given in full) | > 100 µM (inactive) | > 100 µM (inactive) | > 100 µM (inactive) | > 100 µM (inactive) | 97.5 µM (inactive) | 57.8 µM (inactive) | > 100 µM (inactive) | > 100 µM (inactive) | > 100 µM (inactive) | > 100 µM (inactive) | > 100 µM (inactive) | > 100 µM (inactive) | > 100 µM (inactive) | > 100 µM (inactive) | > 100 µM (inactive) | > 100 µM (inactive) | > 100 µM (inactive) | > 100 µM (inactive) | > 100 µM (inactive) | > 100 µM (inactive) |
| O=C1OC(C2Cc3ccccc3C2=O)c2ccccc21 (stereo not given) | > 100 µM (inactive) | > 100 µM (inactive) | > 100 µM (inactive) | > 100 µM (inactive) | > 100 µM (inactive) | > 100 µM (inactive) | > 100 µM (inactive) | > 100 µM (inactive) | > 100 µM (inactive) | > 100 µM (inactive) | > 100 µM (inactive) | > 100 µM (inactive) | > 100 µM (inactive) | > 100 µM (inactive) | > 100 µM (inactive) | > 100 µM (inactive) | > 100 µM (inactive) | > 100 µM (inactive) | > 100 µM (inactive) | > 100 µM (inactive) |
| C=CC(c1ccccc1)[C@@]1(OC(C)=O)C(=O)C(=O)OC1C1COC(C)(C)O1 (stereo not given in full) | 15.2 µM (inactive) | 9.71 µM (inactive) | 17.3 µM (inactive) | 14.1 µM (inactive) | 2.84 µM (inactive) | 5.79 µM (inactive) | 14.1 µM (inactive) | 15.3 µM (inactive) | 10.7 µM (inactive) | 5.78 µM (inactive) | 13.2 µM (inactive) | 7.66 µM (inactive) | 14.9 µM (inactive) | 22.9 µM (inactive) | 11.1 µM (inactive) | 17.2 µM (inactive) | 14.5 µM (inactive) | 10.4 µM (inactive) | 11.5 µM (inactive) | 15.5 µM (inactive) |
| Cc1ccc(C2NC(=O)c3ccccc3N2)c(C)c1 (stereo not given) | 3.21 µM (inactive) | 6 µM (inactive) | 5.13 µM (inactive) | 7.33 µM (inactive) | 1.63 µM (inactive) | 0.807 µM (active) | 1.26 µM (inactive) | 4.62 µM (inactive) | 1.16 µM (inactive) | 6.82 µM (inactive) | 6.01 µM (inactive) | 6.9 µM (inactive) | 2.68 µM (inactive) | 2.4 µM (inactive) | 2.16 µM (inactive) | 6.1 µM (inactive) | 3.07 µM (inactive) | 3.97 µM (inactive) | 6.81 µM (inactive) | 1.34 µM (inactive) |
| NP(=O)(Oc1c2occc2cc2ccc(=O)oc12)N(CCCl)CCCl (stereo not given) | > 100 µM (inactive) | > 100 µM (inactive) | > 100 µM (inactive) | > 100 µM (inactive) | 45.2 µM (inactive) | 89.7 µM (inactive) | > 100 µM (inactive) | > 100 µM (inactive) | > 100 µM (inactive) | 83.2 µM (inactive) | 48.5 µM (inactive) | > 100 µM (inactive) | > 100 µM (inactive) | > 100 µM (inactive) | > 100 µM (inactive) | 74.5 µM (inactive) | 68.1 µM (inactive) | > 100 µM (inactive) | > 100 µM (inactive) | > 100 µM (inactive) |
| CC1CCc2c(c(CC3CC(=O)NC(=O)C3)nn2-c2ccccc2)C1 (stereo not given) | > 100 µM (inactive) | > 100 µM (inactive) | > 100 µM (inactive) | > 100 µM (inactive) | > 100 µM (inactive) | 80.5 µM (inactive) | 76.2 µM (inactive) | > 100 µM (inactive) | > 100 µM (inactive) | > 100 µM (inactive) | > 100 µM (inactive) | > 100 µM (inactive) | > 100 µM (inactive) | > 100 µM (inactive) | > 100 µM (inactive) | > 100 µM (inactive) | 99.1 µM (inactive) | > 100 µM (inactive) | 55.6 µM (inactive) | 75.2 µM (inactive) |
| O=C1NCC2(CCN(Cc3ccccc3)CC2)N1 | > 100 µM (inactive) | > 100 µM (inactive) | > 100 µM (inactive) | > 100 µM (inactive) | > 100 µM (inactive) | > 100 µM (inactive) | > 100 µM (inactive) | > 100 µM (inactive) | > 100 µM (inactive) | > 100 µM (inactive) | > 100 µM (inactive) | > 100 µM (inactive) | > 100 µM (inactive) | > 100 µM (inactive) | > 100 µM (inactive) | > 100 µM (inactive) | > 100 µM (inactive) | > 100 µM (inactive) | > 100 µM (inactive) | > 100 µM (inactive) |
| CCOc1ccc(NC(=O)C(=O)C(/C(=N/N)C(=O)OC)c2nc3ccc([N+](=O)[O-])cc3nc2O)cc1 (stereo not given) | > 100 µM (inactive) | > 100 µM (inactive) | > 100 µM (inactive) | > 100 µM (inactive) | > 100 µM (inactive) | 24.2 µM (inactive) | > 100 µM (inactive) | > 100 µM (inactive) | > 100 µM (inactive) | > 100 µM (inactive) | > 100 µM (inactive) | > 100 µM (inactive) | > 100 µM (inactive) | > 100 µM (inactive) | > 100 µM (inactive) | > 100 µM (inactive) | > 100 µM (inactive) | > 100 µM (inactive) | > 100 µM (inactive) | > 100 µM (inactive) |
| N#Cc1ccc(NC(=O)C(CC(=O)OCc2ccccc2)NC(=O)OCc2ccccc2)cc1 (stereo not given) | > 10 µM (inactive) | > 10 µM (inactive) | > 10 µM (inactive) | > 10 µM (inactive) | > 10 µM (inactive) | > 10 µM (inactive) | > 10 µM (inactive) | > 10 µM (inactive) | > 10 µM (inactive) | > 10 µM (inactive) | > 10 µM (inactive) | > 10 µM (inactive) | > 10 µM (inactive) | > 10 µM (inactive) | > 10 µM (inactive) | > 10 µM (inactive) | > 10 µM (inactive) | > 10 µM (inactive) | > 10 µM (inactive) | > 10 µM (inactive) |
